The experiment relates to NSCLC, pancreatic and colon cancer cell lines. The experiment in a line: Cell viability, M13-C06 and PI-103 alone or combined. Type of experiment: cell-based. Conditions: PI-103, colon cancer cell lines. As to the method: Cells were plated at 5000 cells/well in 96-well tissue culture plates in cell culture medium containing 10% fetal bovine serum, then treated with M13-C06 or PI-103 (American Custom Chemicals Corp. cat# 371935-74-9) as single agents or in combination at 1:3 serial dilutions with a starting concentration of 200 nM and 10 microM for M13-C06 and PI-103 respectively. The cell viability was determined three or five days later by measuring ATP levels with CELL TITER GLO™ reagent from Promega.

As to `Oc1cccc(-c2nc(N3CCOCC3)c3oc4ncccc4c3n2)c1` [PI-103, 3-[4-(4-morpholinyl)pyrido[3′,2′:4,5]furo[3,2-d]pyrimidin-2-yl]-phenol, reference compound], the cell growth result is listed as “None of the colon cancer cell lines appeared to be sensitive to PI-103 inhibition”.

The values above are taken from patent US20090291088A1, “THERAPEUTIC COMBINATIONS OF ANTI-IGF-1R ANTIBODIES AND OTHER COMPOUNDS” (Biogen Idec MA Inc., priority 2008, published 2009).
